Experimental data taken from patent publication US9150543B2, “Substituted indolyl alkyl amino derivatives as inhibitors of histone deacetylase” (Janssen Pharmaceutica N. V., priority 2004, dated 2015).

Key:
[1] = target: histone deacetylase (HeLa nuclear extracts); experiment: In vitro assay for inhibition of histone deacetylase with fluorescent-labelled substrate (C.1.b); type: biochemical; details: Fluor de Lys substrate
Experimental: The HDAC Fluorescent Activity Assay/Drug Discovery Kit of Biomol (cat.No: AK-500-0001) was used. The HDAC Fluorescent Activity Assay is based on the Fluor de Lys (Fluorogenic Histone deAcetylase Lysyl) substrate and developer combination. The Fluor de Lys substrate, comprises an acetylated lysine side chain. Deacetylation of the substrate sensitizes the substrate so that, in the second step, treatment with the Fluor de Lys developer produces a fluorophore.
After 30 min, 1 volume of the developer was added. […] For each experiment, controls (containing HeLa nuclear extract and buffer), a blank incubation (containing buffer but no HeLa nuclear extract) and samples (containing compound dissolved in DMSO and further diluted in buffer and HeLa nuclear extract) were run in parallel. In first instance, compounds were tested at a concentration of 10^−5M. […] All sample were tested 4 times. In each test the blank value was subtracted from both the control and the sample values. The control sample represented 100% of substrate deactylation. For each sample the fluorescence was expressed as a percentage of the mean value of the controls. […] Herein the effects of test compounds are expressed as pIC50 (the negative log value of the IC50-value) (see Table F-3).

[2] = test system: A2780 ovarian carcinoma cells; experiment: Antiproliferative activity on A2780 cells, MTT (C.2); type: cell-based; details: Homo sapiens, 96 h, four days of incubation, read-out: Cellular activity pIC50 C.2 (converted)
Experimental: All compounds tested were dissolved in DMSO and further dilutions were made in culture medium. Final DMSO concentrations never exceeded 0.1% (v/v) in cell proliferation assays. Controls contained A2780 cells and DMSO without compound and blanks contained DMSO but no cells. MTT was dissolved at 5 mg/ml in PBS. A glycine buffer comprised of 0.1 M glycine and 0.1 M NaCl buffered to pH 10.5 with NaOH (1N) was prepared (all reagents were from Merck).
The human A2780 ovarian carcinoma cells (a kind gift from Dr. T. C. Hamilton [Fox Chase Cancer Centre, Pennsylvania, USA]) were cultured in RPMI 1640 medium supplemented with 2 mM L-glutamine, 50 μg/ml gentamicin and 10% fetal calf serum. Cells were routinely kept as monolayer cultures at 37° C. in a humidified 5% CO2 atmosphere. Cells were passaged once a week using a trypsin/EDTA solution at a split ratio of 1:40. All media and supplements were obtained from Life Technologies. Cells were free of mycoplasma contamination as determined using the Gen-Probe Mycoplasma Tissue Culture kit (supplier: BioMerieux).
Cells were seeded in NUNC™ 96-well culture plates (Supplier: Life Technologies) and allowed to adhere to the plastic overnight. Densities used for plating were 1500 cells per well in a total volume of 200 μl medium. After cell adhesion to the plates, medium was changed and drugs and/or solvents were added to a final volume of 200 μl. Following four days of incubation, medium was replaced by 200 μl fresh medium and cell density and viability was assessed using an MTT-based assay. To each well, 25 μl MTT solution was added and the cells were further incubated for 2 hours at 37° C. The medium was then carefully aspirated and the blue MTT-formazan product was solubilized by addition of 25 μl glycine buffer followed by 100 μl of DMSO. […] Within an experiment, the results for each experimental condition are the mean of 3 replicate wells. For initial screening purposes, compounds were tested at a single fixed concentration of 10^−6 M. For active compounds, the experiments were repeated to establish full concentration-response curves. For each experiment, controls (containing no drug) and a blank incubation (containing no cells or drugs) were run in parallel. The blank value was subtracted from all control and sample values. For each sample, the mean value for cell growth (in absorbance units) was expressed as a percentage of the mean value for cell growth of the control. […] Herein the effects of test compounds are expressed as pIC50 (the negative log value of the IC50-value)(see Table F-3).

Row | SMILES | Enzymatic activity pIC50 C.1.b [1] | IC50 [2] [nM]
1 | CCC(CC)n1cc(CNCC2CCN(c3ncc(C(=O)NO)cn3)CC2)c2ccccc21 [Compound 40] | 8.5 | 31.6
2 | CCC(=O)N(CCc1cn(C)c2ccccc12)CC1CCN(c2ncc(C(=O)NO)cn2)CC1 [Compound 70] | 8.5 | 158
3 | O=C(NO)c1cnc(N2CCC(CNCCc3c[nH]c4ccc(Cl)cc34)CC2)nc1 [Compound 17] | 7.8 | 158
4 | CC(=O)N(Cc1cn(C)c2ccccc12)CC1CCN(c2ncc(C(=O)NO)cn2)CC1 [Compound 72] | 7.9 | 158
5 | CCC(=O)N(CCc1cn(C)c2ccc(Cl)cc12)CC1CCN(c2ncc(C(=O)NO)cn2)CC1 [Compound 69] | 7.6 | 200
6 | O=C(NO)c1cnc(N2CCC(CNCc3cccc4cc[nH]c34)CC2)nc1 [Compound 63] | >9.0 | 31.6
7 | CCCn1cc(CCNCC2CCN(c3ncc(C(=O)NO)cn3)CC2)c2ccc(OC)cc21 [Compound 75] | 7.3 | 79.4
8 | O=C(NO)c1cnc(N2CCC(CNCc3cn(CC4CC4)c4ccccc34)CC2)nc1 [Compound 48] | >9.0 | 6.31
9 | CCCn1cc(CCNCC2CCN(c3ncc(C(=O)NO)cn3)CC2)c2ccccc21 [Compound 31] | 8.2 | 39.8
10 | O=C(NO)c1cnc(N2CCC(CNCc3cc4ccccc4s3)CC2)nc1 [Compound 9] | 8.3 | 79.4
11 | Cc1[nH]c2ccccc2c1CCNC1CCN(c2ncc(C(=O)NO)cn2)CC1 [Compound 29] | 7.9 | 126
12 | O=C(NO)c1cnc(N2CCC(CNCc3cn(Cc4ccccc4)c4ccccc34)CC2)nc1 [Compound 54] | 10.2 | 12.6
13 | CCC(=O)N(CCc1cn(C)c2cc(OC)ccc12)CC1CCN(c2ncc(C(=O)NO)cn2)CC1 [Compound 71] | 7.5 | 316
14 | Cc1[nH]c2ccccc2c1CNCC1CCN(c2ncc(C(=O)NO)cn2)CC1 [Compound 35] | 8.2 | 200
15 | Cc1[nH]c2ccccc2c1CCNCC1CCN(c2ncc(C(=O)NO)cn2)CC1 [Compound 76] | 7.8 | 200

Other lines, results leading:

Row | Enzymatic activity pIC50 C.1.b [1] | IC50 [2] [nM] | SMILES
16 | 8.4 | 1580 | CCCn1cc(CNCC2CCN(c3ncc(C(=O)NO)cn3)CC2)c2ccc(Cl)cc21 [Compound 41]
17 | 8.2 | 79.4 | COc1ccc2c(c1)c(CCNCC1CCN(c3ncc(C(=O)NO)cn3)CC1)cn2C [Compound 74]
18 | 8.3 | 10 | Cn1cc(CNCC2CCN(c3ncc(C(=O)NO)cn3)CC2)c2cc([N+](=O)[O-])ccc21 [Compound 18]
19 | 8.9 | 25.1 | CCn1cc(CNCC2CCN(c3ncc(C(=O)NO)cn3)CC2)c2ccc(OC)cc21 [Compound 61]
20 | 9.0 | 20 | Cn1cc(CNCC2CCN(c3ncc(C(=O)NO)cn3)CC2)c2cc3c(cc21)OCO3 [Compound 59]
21 | 8.6 | 31.6 | Cc1cccc2c(CNCC3CCN(c4ncc(C(=O)NO)cn4)CC3)cn(C)c12 [Compound 37]
22 | 9.8 | 10 | Cn1cc(CNCC2CCN(c3ncc(C(=O)NO)cn3)CC2)c2cc(F)ccc21 [Compound 51]
23 | 8.9 | 15.8 | O=C(NO)c1cnc(N2CCC(CNCc3cccc4[nH]ccc34)CC2)nc1 [Compound 64]
24 | 9.2 | 25.1 | Cn1cc(CNCC2CCN(c3ncc(C(=O)NO)cn3)CC2)c2ccc(Cl)cc21 [Compound 56]
25 | 8.4 | 31.6 | CCn1cc(CNCC2CCN(c3ncc(C(=O)NO)cn3)CC2)c2ccccc21 [Compound 34]
